Measurements taken from patent publication US10745383B2, “1,3,5-triazine derivative and method of using same” (CHIA TAI TIANQING PHARMACEUTICAL GROUP CO., LTD., priority 2015, dated 2020).
pIC50: −log10 of the molar value. Values belong to the compound of their own block, whether it stands above or below them.

How the values were obtained:
IDH2 (R172K, 40-end) = IDH2 (R172K, 40-end) (Homo sapiens (Human), UniProt P48735, R172K); assay: IDH2 inhibitory activity determined by decrease of NADPH (diaphorase/resazurin fluorescence); format: biochemical; settings: 120 min pre-incubation with enzyme and NADPH, 120 min reaction with α-KG
Procedure: The inhibitory activity of the compounds of the present application against IDH2 (R172K, 40-end) was determined by using the following method, which was expressed as IC50 values, i.e., the concentrations of the compounds required to achieve 50% inhibition of IDH2 activity.
The inhibitory activity of a compound against IDH2 (R172K, 40-end) was determined by the decrease of a helper factor NADPH. The test compound was pre-incubated with an enzyme and NADPH, and then a reaction was initiated by the addition of α-KG, and performed for 120 minutes under a linear condition. Then, the reaction was terminated by the addition of diaphorase (lipoamide dehydrogenase) and the corresponding substrate resazurin. Diaphorase terminated the IDH2m reaction by decreasing the available helper factor NADPH, which oxidized NADPH to NADP, and reduced resazurin to highly fluorescent resorufin. The amount of remaining helper factor NADPH after a specific reaction time was quantified via an easily detectable fluorophore.
Specifically, 2.5 μl of a 3-fold gradient diluted test compound was added to a 384-well plate, and then 5 μl of a reaction buffer (20 mM Tris-HCl, PH7.5; 150 mM NaCl; 10 mM MgCl2; 10 mM MnCl2; 0.4 mg/ml BSA and 2 mM DTT) containing 80 nM IDH2 (R172K, 40-end) and 40 μM NADPH was added. Then, the resulting test mixture was incubated for 120 minutes at a temperature of 23° C., and then 2.5 μl of the reaction buffer containing 4 mM α-KG was added to initiate the reaction. After incubating for 120 minutes at room temperature, 5 μl of a termination mixture (0.4 U/ml diaphorase and 40 μM resazurin) prepared with the reaction buffer was added to convert resazurin to resorufin to determine the remaining NADPH. After incubating for 10 minutes at a temperature of 23° C., a fluorescence value was determined through Flexstation 3 at Ex535/Em595.

[1] = Pharmacokinetic parameters in rats after a single intragastric dose; format: in vivo; settings: for AUC(0-inf) / Cmax / Tmax / half-life: rat, po, male rats, intragastric, single dose 5 mg/kg, plasma
Procedure: Healthy male adult rats (7-9 weeks old) were used in this study. Each group of animals (3 male rats) was intragastrically administered once at a single dose of 5 mg/kg. The animals in the intragastric administration group were fasted overnight before this study. The fasting time period was from 10 hours before administration to 4 hours after administration.
Blood samples were taken at 0.25, 0.5, 1, 2, 4, 6, 8 and 24 h after administration. The animals were anesthetized with isoflurane using an animal anesthesia machine, and then 0.3 mL whole blood samples were taken from the fundus venous plexus. The blood samples were placed in heparin anticoagulant tubes, and centrifuged for 5 min at 4° C. and 4000 rpm. The resulting plasmas were transferred to centrifuge tubes, and stored at −80° C. until analysis.
Verified LC-MS/MS method was used to analyze the plasma samples. Plasma concentration-time data of animals were analyzed using WinNonlin (Professional Edition, version 6.3; Pharsight Company) software. The non-compartmental model was introduced for concentration analysis. The pharmacokinetic parameters of the compounds were calculated.

[2] = rats, same dose (5 mg/kg intragastric)

Chain of IDH2 (R172K, 40-end) (P48735 40-452 R172K): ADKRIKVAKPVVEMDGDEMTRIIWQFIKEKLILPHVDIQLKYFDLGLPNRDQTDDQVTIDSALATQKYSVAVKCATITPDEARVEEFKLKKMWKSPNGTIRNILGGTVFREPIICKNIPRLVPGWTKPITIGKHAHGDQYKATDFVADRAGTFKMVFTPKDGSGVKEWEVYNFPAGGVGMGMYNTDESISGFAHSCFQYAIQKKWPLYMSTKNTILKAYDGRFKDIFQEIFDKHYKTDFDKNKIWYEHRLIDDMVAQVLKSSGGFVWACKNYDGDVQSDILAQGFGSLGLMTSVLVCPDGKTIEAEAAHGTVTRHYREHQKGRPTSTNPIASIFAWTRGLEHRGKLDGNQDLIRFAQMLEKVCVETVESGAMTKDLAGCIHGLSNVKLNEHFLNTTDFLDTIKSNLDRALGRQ

Compound: CC(C)(O)CNc1nc(Nc2ccnc(C(F)(F)F)c2)nc(-c2cccc(C(F)(F)F)n2)n1 [AG-221, reference compound]
AUC(0-inf) [1]: 5380 ng·h/mL | Cmax [1]: 479 ng/mL | Tmax [1]: 4 h | half-life [1]: 3.73 h

Compound: CC(C)(CO)ONc1nc(Nc2ccnc(C(F)(F)F)c2)nc(-c2cccc(C(F)(F)F)n2)n1 [Example 7, 2-methyl-2-(((4-(6-(trifluoromethyl)pyridin-2-yl)-6-((2-(trifluoromethyl)pyridin-4-yl)amino)-1,3,5-triazin-2-yl)amino)oxy)propan-1-ol]
pIC50 (IDH2 (R172K, 40-end)): 6.81

Compound: CC(C)(C)ONc1nc(Nc2ccnc(C(F)(F)F)c2)nc(-c2ccccc2)n1 [Example 10, 4-(tert-butoxyamino)-6-phenyl-N-(2-(trifluoromethyl)pyridin-4-yl)-1,3,5-triazin-2-amine]
pIC50 (IDH2 (R172K, 40-end)): 7.29

Compound: CC(C)(C)ONc1nc(Nc2ccnc(C(F)(F)F)c2)nc(-c2cccc(C(F)(F)F)n2)n1 [Example 3, 4-(tert-butoxyamino)-6-(6-(trifluoromethyl)pyridin-2-yl)-N-(2-(trifluoromethyl)pyridin-4-yl)-1,3,5-triazin-2-amine]
pIC50 (IDH2 (R172K, 40-end)): 7.50 | AUC(0-inf) [1]: 10800 ng·h/mL | Cmax [1]: 589 ng/mL | Tmax [1]: 5 h | half-life [1]: 12 h | half-life compared with AG-221 [1, 2]: longer half-life | metabolism in vivo compared with AG-221 [1, 2]: better metabolism in vivo | plasma concentration compared with AG-221 [1, 2]: higher plasma concentration

Continued, values first:

pIC50 (IDH2 (R172K, 40-end)): 6.62
Compound: FC(F)(F)c1cc(Nc2nc(NOCc3ccccc3)nc(-c3cccc(C(F)(F)F)n3)n2)ccn1 [Example 8, 4-((benzyloxy)amino)-6-(6-(trifluoromethyl)pyridin-2-yl)-N-(2-(trifluoromethyl)pyridin-4-yl)-1,3,5-triazin-2-amine]

pIC50 (IDH2 (R172K, 40-end)): 7.33
Compound: CC(C)(O)CONc1nc(Nc2ccnc(C(F)(F)F)c2)nc(-c2cccc(C(F)(F)F)n2)n1 [Example 6, 2-methyl-1-(((4-(6-(trifluoromethyl)pyridin-2-yl)-6-((2-(trifluoromethyl)pyridin-4-yl)amino)-1,3,5-triazin-2-yl)amino)oxy)propan-2-ol]

pIC50 (IDH2 (R172K, 40-end)): 7.42
Compound: FC(F)(F)c1cc(Nc2nc(NOCC3CC3)nc(-c3cccc(C(F)(F)F)n3)n2)ccn1 [Example 4, 4-((cyclopropylmethoxy)amino)-6-(6-(trifluoromethyl)pyridin-2-yl)-N-(2-(trifluoromethyl)pyridin-4-yl)-1,3,5-triazin-2-amine]

pIC50 (IDH2 (R172K, 40-end)): 7.65
Compound: CCONc1nc(Nc2ccnc(C(F)(F)F)c2)nc(-c2cccc(C(F)(F)F)n2)n1 [Example 1, 4-(ethoxyamino)-6-(6-(trifluoromethyl)pyridin-2-yl)-N-(2-(trifluoromethyl)pyridin-4-yl)-1,3,5-triazin-2-amine]
